Reference: ChEMBL document CHEMBL1201862, “PubChem BioAssay data set” (2004)
Active and inactive are the calls of the source.

Legend:
[1] = C. albicans growth with fluconazole, confirmation, fluorescence, retest (AID 2467); type: functional, cell-based
[2] = system: Streptococcus sp. 'group A'; experiment: growth inhibition of control SK(-) GAS strain, dose response, counter-screen for streptokinase expression inhibitor project, luminescence, kanamycin, BacTiterGlo, confirmation (AID 1900); type: functional, organism-based
Streptokinase A = target: T1, Streptokinase A (Streptococcus pyogenes serotype M1, UniProt P10520); experiment: S. pyogenes streptokinase expression inhibitors, potency, dose response, plasminogen activation absorbance, OD405 (AID 1914); type: functional, Streptococcus pyogenes M1 GAS;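 note: secreted streptokinase activity via plasminogen activation per viability signal from cell pellet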
T1 sequence (P10520 whole entry): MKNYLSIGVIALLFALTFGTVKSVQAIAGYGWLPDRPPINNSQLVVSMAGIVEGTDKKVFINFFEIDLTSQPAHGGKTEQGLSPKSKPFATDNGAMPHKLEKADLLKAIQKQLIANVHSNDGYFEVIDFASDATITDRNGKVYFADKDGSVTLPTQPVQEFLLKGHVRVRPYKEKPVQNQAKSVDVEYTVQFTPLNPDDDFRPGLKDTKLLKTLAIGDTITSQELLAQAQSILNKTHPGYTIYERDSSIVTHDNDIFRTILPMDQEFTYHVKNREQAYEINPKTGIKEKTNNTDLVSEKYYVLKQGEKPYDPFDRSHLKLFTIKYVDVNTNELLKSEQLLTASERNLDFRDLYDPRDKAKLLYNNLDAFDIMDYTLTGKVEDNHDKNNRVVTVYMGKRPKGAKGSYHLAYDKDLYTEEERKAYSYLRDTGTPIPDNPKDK

Beta-galactosidase = Beta-galactosidase (Escherichia coli, UniProt Q8VNN2); experiment: beta-galactosidase enzyme inhibitors and activators, dose response, artefact control for CCR6 antagonist project, biochemical, E. coli enzyme, set 3 (AID 504712); type: functional
Sequence of Beta-galactosidase (Q8VNN2 whole entry): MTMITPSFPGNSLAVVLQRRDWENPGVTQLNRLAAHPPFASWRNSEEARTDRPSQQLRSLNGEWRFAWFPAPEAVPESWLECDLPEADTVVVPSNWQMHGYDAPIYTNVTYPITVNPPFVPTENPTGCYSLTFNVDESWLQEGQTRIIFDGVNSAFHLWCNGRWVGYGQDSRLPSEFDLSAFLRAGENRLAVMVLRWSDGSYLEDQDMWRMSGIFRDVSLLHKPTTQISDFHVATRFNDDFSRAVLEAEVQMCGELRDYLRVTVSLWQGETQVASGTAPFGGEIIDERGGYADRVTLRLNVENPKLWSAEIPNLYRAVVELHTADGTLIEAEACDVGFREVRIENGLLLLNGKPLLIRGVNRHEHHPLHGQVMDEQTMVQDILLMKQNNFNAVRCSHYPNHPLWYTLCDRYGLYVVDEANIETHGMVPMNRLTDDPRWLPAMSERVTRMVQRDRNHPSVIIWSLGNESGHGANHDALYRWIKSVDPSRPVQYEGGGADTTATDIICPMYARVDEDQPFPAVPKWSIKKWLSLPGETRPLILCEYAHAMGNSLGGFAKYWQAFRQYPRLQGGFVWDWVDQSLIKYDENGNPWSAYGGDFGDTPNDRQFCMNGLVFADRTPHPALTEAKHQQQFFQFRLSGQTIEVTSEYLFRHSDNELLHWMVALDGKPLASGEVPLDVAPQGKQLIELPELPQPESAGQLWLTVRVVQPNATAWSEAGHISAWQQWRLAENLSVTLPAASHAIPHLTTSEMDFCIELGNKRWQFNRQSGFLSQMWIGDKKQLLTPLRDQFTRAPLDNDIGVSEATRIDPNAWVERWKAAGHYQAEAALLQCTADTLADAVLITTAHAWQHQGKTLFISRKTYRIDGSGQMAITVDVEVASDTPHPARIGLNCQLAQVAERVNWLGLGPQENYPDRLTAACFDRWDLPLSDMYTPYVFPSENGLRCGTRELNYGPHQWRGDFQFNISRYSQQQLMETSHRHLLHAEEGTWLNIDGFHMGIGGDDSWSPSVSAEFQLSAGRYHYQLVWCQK

[3] = NIH-3T3 fibroblast cytotoxicity, dose response, cytotoxicity control, cell-based, fluorescence, Alamar Blue, secondary assay (AID 2327); type: functional;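 note: NIH-3T3 mouse fibroblasts cultured with fluconazole at 8 µg/mL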
Streptococcus = experiment: Group A Streptococcus viability loss, dose response, counter-screen for streptokinase expression inhibitor project, luminescence, BacTiterGlo (AID 1915); type: functional, organism-based;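 note: potency for reduction of bacterial viability or growth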
Coagulation factor XII = target: T2, Coagulation factor XII (Homo sapiens, UniProt P00748); experiment: FXIIa inhibitor potency, concentration-response, biochemical (AID 716); type: functional
T2 sequence (P00748 whole entry): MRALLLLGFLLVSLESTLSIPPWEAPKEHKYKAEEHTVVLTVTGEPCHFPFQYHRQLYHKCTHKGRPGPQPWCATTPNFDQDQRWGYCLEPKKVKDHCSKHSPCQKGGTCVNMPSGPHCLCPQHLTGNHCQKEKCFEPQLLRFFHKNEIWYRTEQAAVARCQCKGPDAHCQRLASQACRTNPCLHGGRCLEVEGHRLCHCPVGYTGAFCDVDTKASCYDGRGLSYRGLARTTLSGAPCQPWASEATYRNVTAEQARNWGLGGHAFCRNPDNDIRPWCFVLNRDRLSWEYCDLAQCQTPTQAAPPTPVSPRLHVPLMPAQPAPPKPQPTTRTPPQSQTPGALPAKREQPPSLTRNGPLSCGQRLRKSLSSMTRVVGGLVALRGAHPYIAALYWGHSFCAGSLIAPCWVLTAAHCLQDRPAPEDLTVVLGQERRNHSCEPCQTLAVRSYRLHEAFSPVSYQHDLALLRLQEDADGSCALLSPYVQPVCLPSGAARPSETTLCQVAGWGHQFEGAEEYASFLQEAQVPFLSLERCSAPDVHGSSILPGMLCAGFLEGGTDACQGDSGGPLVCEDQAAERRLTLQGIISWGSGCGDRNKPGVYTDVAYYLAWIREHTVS

[4] = target: T3, Tyrosine-protein phosphatase non-receptor type 7 (Homo sapiens, UniProt P35236); experiment: redox-dependent HePTP inhibition, mechanism study, biochemical, fluorescence (AID 2068); type: functional
T3 sequence (P35236 whole entry): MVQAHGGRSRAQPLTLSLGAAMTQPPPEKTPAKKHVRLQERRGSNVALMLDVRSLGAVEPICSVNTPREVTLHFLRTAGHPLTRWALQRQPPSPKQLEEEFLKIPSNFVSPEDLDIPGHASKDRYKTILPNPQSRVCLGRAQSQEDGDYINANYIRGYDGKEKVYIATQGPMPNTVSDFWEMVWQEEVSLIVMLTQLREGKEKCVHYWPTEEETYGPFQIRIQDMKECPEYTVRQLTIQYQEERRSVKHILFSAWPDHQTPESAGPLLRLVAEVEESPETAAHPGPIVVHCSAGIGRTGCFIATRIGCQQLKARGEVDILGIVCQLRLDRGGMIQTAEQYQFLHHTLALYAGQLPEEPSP

[5] = target: T4, Glutathione-S-transferase (Schistosoma japonicum, UniProt Q26513); experiment: biotin-GST/anti-GST TR-FRET signal inhibitors, dose response, artefact control for Vif-APOBEC3G degradation inhibitor project, biochemical (AID 1117362); type: functional
T4 sequence (Q26513 whole entry): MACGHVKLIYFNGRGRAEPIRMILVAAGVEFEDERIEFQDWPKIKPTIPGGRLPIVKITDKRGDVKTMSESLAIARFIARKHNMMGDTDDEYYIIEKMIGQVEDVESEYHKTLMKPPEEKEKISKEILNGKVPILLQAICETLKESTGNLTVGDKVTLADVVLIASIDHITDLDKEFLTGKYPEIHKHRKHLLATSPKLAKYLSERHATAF

[6] = target: Induced myeloid leukemia cell differentiation protein Mcl-1 (Homo sapiens, UniProt Q07820); type: functional
Sequence of Induced myeloid leukemia cell differentiation protein Mcl-1 (Q07820 whole entry): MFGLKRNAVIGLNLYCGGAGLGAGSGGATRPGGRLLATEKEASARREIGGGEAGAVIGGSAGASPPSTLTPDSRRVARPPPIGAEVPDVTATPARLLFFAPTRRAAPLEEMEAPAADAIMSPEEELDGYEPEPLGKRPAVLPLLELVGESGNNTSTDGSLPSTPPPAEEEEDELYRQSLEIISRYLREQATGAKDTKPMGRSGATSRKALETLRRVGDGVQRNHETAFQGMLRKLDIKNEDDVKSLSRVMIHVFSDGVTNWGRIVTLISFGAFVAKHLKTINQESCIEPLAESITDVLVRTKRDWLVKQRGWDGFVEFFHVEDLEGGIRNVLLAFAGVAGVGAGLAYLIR

[7] = target: Eukaryotic translation initiation factor 4E (Mus musculus, UniProt P63073); experiment: eIF4E–eIF4G protein interaction inhibitors, dose response, biochemical, TR-FRET (AID 855); type: functional;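 note: potency for disrupting eIF4E binding to eIF4GI seen as loss of FRET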
Sequence of Eukaryotic translation initiation factor 4E (P63073 whole entry): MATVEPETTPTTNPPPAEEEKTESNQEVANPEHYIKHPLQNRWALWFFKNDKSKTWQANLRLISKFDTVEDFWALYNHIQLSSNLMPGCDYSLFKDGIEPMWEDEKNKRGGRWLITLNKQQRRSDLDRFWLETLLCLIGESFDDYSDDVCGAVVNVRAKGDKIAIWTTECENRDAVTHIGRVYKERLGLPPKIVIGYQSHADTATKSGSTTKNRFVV

SMILES: Fc1cccc2sc(Nc3nnc(-c4ccco4)o3)nc12
- EC50 [1]: 2.43 µM (active)
- EC50 [2]: 632 nM (active)
- EC50 (Streptokinase A): > 150 µM (not active)
- IC50 (Beta-galactosidase): > 66.6 µM (inactive)
- EC50 [3]: 79.4 µM (active)
- EC50 (Streptococcus): 11.2 µM (active)

SMILES: COCCn1c(SCC(N)=O)nnc1-c1c[nH]c2ccccc12
- IC50 (Coagulation factor XII): > 50 µM (inactive)

SMILES: Cn1c(COc2ccc(Cl)cc2)nc2ccccc2c1=O
- IC50 (Coagulation factor XII): > 50 µM (inactive)

SMILES: O=C(NCCO)Nc1ccc2nc(-c3ccco3)c(-c3ccco3)nc2c1
- IC50 [4]: 476 nM (active)
- IC50 [5]: 48.5 µM (active)
- IC50 [6]: 579 nM (active)
- IC50 [7]: 50 µM (inactive)
